Results reported in patent US8987256B2, “Oxo-heterocyclic substituted carboxylic acid derivatives and the use thereof” (Bayer Intellectual Property GmbH, priority 2008, dated 2015).

How the values were obtained:
[1] = molecular target: T1, recombinant guanylate cyclase reporter cell line (Rattus norvegicus, UniProt P20595); experiment: sGC-activating activity in the CHO reporter cell in vitro; assay type: cell-based
T1 construct: expressed in transfected cells; host or cells: CHO reporter cell line
T1 sequence (P20595 1-619): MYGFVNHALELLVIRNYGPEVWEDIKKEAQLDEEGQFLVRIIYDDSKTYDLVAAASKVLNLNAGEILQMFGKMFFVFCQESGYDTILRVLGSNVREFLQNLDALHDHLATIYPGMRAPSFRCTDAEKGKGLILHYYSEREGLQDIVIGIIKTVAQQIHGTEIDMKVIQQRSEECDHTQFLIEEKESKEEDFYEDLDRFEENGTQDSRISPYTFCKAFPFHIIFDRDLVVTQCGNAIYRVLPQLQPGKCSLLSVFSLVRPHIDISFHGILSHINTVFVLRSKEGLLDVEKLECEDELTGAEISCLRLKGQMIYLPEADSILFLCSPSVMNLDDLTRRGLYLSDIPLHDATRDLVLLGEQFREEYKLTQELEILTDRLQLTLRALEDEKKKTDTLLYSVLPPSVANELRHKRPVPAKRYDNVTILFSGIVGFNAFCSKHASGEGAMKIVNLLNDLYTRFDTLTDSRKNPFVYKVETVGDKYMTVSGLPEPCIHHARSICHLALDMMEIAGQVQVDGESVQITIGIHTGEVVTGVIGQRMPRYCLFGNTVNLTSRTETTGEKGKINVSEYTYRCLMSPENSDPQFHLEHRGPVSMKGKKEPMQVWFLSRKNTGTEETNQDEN
T1 sequence (P19686 1-690 partner): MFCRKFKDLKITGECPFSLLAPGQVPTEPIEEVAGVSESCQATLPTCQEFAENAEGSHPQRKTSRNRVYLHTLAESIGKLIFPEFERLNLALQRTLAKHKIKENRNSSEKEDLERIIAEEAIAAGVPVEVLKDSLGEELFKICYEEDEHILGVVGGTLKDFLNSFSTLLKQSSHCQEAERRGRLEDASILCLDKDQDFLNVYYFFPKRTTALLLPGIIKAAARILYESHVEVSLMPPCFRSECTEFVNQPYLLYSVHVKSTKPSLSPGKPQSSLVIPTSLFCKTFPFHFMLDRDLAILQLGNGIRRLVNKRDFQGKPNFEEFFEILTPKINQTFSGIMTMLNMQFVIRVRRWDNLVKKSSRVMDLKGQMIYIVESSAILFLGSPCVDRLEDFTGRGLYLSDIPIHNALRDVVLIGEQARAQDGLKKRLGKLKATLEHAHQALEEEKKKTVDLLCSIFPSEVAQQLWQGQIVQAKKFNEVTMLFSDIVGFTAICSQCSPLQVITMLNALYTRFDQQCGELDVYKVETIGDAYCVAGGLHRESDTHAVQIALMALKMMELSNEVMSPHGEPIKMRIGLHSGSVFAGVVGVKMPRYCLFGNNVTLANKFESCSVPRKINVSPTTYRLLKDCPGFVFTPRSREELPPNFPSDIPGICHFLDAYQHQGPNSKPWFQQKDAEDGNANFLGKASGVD
Protocol: The cellular action of the compounds according to the invention is determined at a recombinant guanylate cyclase reporter cell line, as described in F. Wunder et al., Anal. Biochem. 339, 104-112 (2005).

[2] = molecular target: T2, soluble guanylate cyclase (sGC) (Rattus norvegicus, UniProt P20595); experiment: Activating action at the sGC enzyme in vitro (PPi detection, luciferase); assay type: biochemical; conditions: for EC50: read-out: EC50 (concentration at 50% of maximum efficacy), activating action at the sGC enzyme
T2 construct: made in house; host or cells: baculovirus/Sf9 insect cells
T2 sequence (P20595 1-619): T1 sequence (P20595 1-619)
T2 sequence (P19686 1-690 partner): T1 sequence (P19686 1-690 partner)
Protocol: Soluble guanylate cyclase (sGC) converts on stimulation GTP into cGMP and pyrophosphate (PPi). PPi is detected with the aid of the assay described below. The signal produced in the assay increases as the reaction progresses and serves as a measure of the sGC enzyme activity under the given stimulation.
To carry out the assay, 29 μl of enzyme solution [0-10 nM soluble guanylate cyclase (prepared according to Honicka et al., J. Mol. Med. 77, 14-23 (1999)) in 50 mM TEA, 2 mM MgCl2, 0.1% BSA (fraction V), 0.005% Brij®, pH 7.5] are initially introduced into a microplate, and 1 μl of the substance to be tested (as a serially diluted solution in DMSO) is added. The mixture is incubated at room temperature for 10 min. Then 20 μl of detection mix [1.2 nM Firefly Luciferase (Photinus pyralis luciferase, Promega), 29 μM dehydroluciferin (prepared according to Bitler & McElroy, Arch. Biochem. Biophys. 72, 358 (1957)), 122 μM luciferin (Promega), 153 μM ATP (Sigma) and 0.4 mM DTT (Sigma) in 50 mM TEA, 2 mM MgCl2, 0.1% BSA (fraction V), 0.005% Brij®, pH 7.5] are added. The enzyme reaction is started by adding 20 μl of substrate solution [1.25 mM guanosine 5′-triphosphate (Sigma) in 50 mM TEA, 2 mM MgCl2, 0.1% BSA (fraction V), 0.005% Brij®, pH 7.5] and measured continuously in a luminometer. The extent of the stimulation by the substance to be tested can be determined relative to the signal of the unstimulated reaction.
The activation of heme-free guanylate cyclase is examined by addition of 25 μM of 1H-1,2,4-oxadiazolo[4,3-a]quinoxalin-1-one (ODQ) to the enzyme solution and subsequent incubation for 30 minutes and compared to the stimulation of the native enzyme.

saphenous artery rings = experiment: Vasorelaxant effect in vitro (phenylephrine-contracted artery rings); set-up: species or system Rabbits; conditions: Oryctolagus cuniculus, concentration reducing phenylephrine-induced contraction by 50%
Protocol: Rabbits are anesthetized and sacrificed by intravenous injection of thiopental sodium (about 50 mg/kg) and exsanguinated. The saphenous artery is removed and divided into rings 3 mm wide. The rings are mounted singly on in each case a pair of triangular hooks open at the end and made of 0.3 mm-thick special wire (Remanium®). Each ring is placed under an initial tension in 5 ml organ baths with Krebs-Henseleit solution which is at 37° C., is gassed with carbogen and has the following composition: NaCl 119 mM; KCl 4.8 mM; CaCl2×2H2O 1 mM; MgSO4×7H2O 1.4 mM; KH2PO4 1.2 mM; NaHCO3 25 mM; glucose 10 mM; bovine serum albumin 0.001%. The force of contraction is detected with Statham UC2 cells, amplified and digitized via A/D converters (DAS-1802 HC, Keithley Instruments, Munich) and recorded in parallel on chart recorders. Contractions are induced by addition of phenylephrine.
After several (generally 4) control cycles, the substance to be investigated is added in each further run in increasing dosage, and the level of the contraction achieved under the influence of the test substance is compared with the level of the contraction reached in the last preceding run. The concentration necessary to reduce the contraction reached in the preceding control by 50% is calculated from this (IC50). The standard application volume is 5 μl. The proportion of DMSO in the bath solution corresponds to 0.1%.

| MEC (minimum effective concentration), sGC-activating activity in the CHO reporter cell [1] | MEC (minimum effective concentration), activating action at the sGC enzyme [2] | EC50 [2] | IC50 (saphenous artery rings) | SMILES |
| --- | --- | --- | --- | --- |
| 3 nM | 1.2 nM | 17 nM |  | O=C(Nc1cccc(CC2(C(=O)O)CC2)c1)C(c1ccc(CN2N=C(c3ccccc3)OCC2=O)cc1)C1CCC(F)(F)C1 (single isomer, unassigned) [Example 241, 1-(3-{[(3,3-Difluorocyclopentyl) {4-[(5-oxo-2-phenyl-5,6-dihydro-4H-1,3,4-oxadiazin-4-yl)-methyl]phenyl}acetyl]amino}benzyl)cyclopropanecarboxylic acid] |
| 30 nM | 8.1 nM | 420 nM |  | O=C(O)CCc1cc(F)cc(NC(=O)C(c2ccc(CN3N=C(c4ccccc4)OCC3=O)cc2)C2CCCC2)c1 (centres unmarked) [Example 230] |
| 0.2 nM | 0.4 nM | 5.2 nM |  | O=C(Nc1cc(CC2(C(=O)O)CC2)ccc1F)C(c1ccc(CN2N=C(c3ccccc3)OCC2=O)cc1)C1CCCC1 (centres unmarked) [Example 231] |
| 20 nM | 93 nM | 1100 nM |  | O=C(O)CCc1cc(NC(=O)C(c2ccc(CN3N=C(c4ccccc4)OCC3=O)cc2)C2CCCC2)ccc1F (centres unmarked) [Example 232] |
| 0.3 nM | 3.3 nM | 78 nM |  | O=C(Nc1cccc(CC2(C(=O)O)CC2)c1F)C(c1ccc(CN2N=C(c3ccccc3)OCC2=O)cc1)C1CCCC1 (centres unmarked) [Example 233] |
| 1 nM | 4.1 nM | 220 nM |  | O=C(Nc1ccc(F)c(CC2(C(=O)O)CC2)c1)C(c1ccc(CN2N=C(c3ccccc3)OCC2=O)cc1)C1CCCC1 (centres unmarked) [Example 234] |

Further lines, the compound ahead of its results:

| SMILES | MEC (minimum effective concentration), sGC-activating activity in the CHO reporter cell [1] | MEC (minimum effective concentration), activating action at the sGC enzyme [2] | EC50 [2] | IC50 (saphenous artery rings) |
| --- | --- | --- | --- | --- |
| CCC(C)C(C(=O)Nc1cccc(CC(C)(C)C(=O)O)c1)c1ccc(CN2N=C(c3ccccc3)OCC2=O)cc1 (centres unmarked) [Example 143, 2,2-dimethyl-3-{3-[(3-methyl-2-{4-[(5-oxo-2-phenyl-5,6-dihydro-4H-1,3,4-oxadiazin-4-yl)methyl]phenyl}-pentanoyl)amino]phenyl}propanoic acid] | 3 nM |  |  | 345 nM |
| CCC(C(C(=O)Nc1cccc(CC2(C(=O)O)CC2)c1)c1ccc(CN2N=C(c3ccccc3)OCC2=O)cc1)C(F)(F)F (centres unmarked) [Example 170, 1-(3-{[2-{4-[(5-oxo-2-phenyl-5,6-dihydro-4H-1,3,4-oxadiazin-4-yl)methyl]phenyl}-3-(trifluoromethyl)-pentanoyl]amino}benzyl)cyclopropanecarboxylic acid] | 3 nM | 1 nM | 11 nM |  |
| Cc1ccc(=O)n(Cc2ccc(C(C(=O)Nc3cccc(CC4(C(=O)O)CC4)c3)C3CCCC3)cc2)n1 (centres unmarked) [Example 171, 1-{3-[(cyclopentyl{4-[(3-methyl-6-oxopyridazin-1(6H)-yl)methyl]phenyl}acetyl)amino]benzyl}-cyclopropanecarboxylic acid] | 30 nM | 3.7 nM | 59 nM |  |
| O=C(Nc1cccc(CC2(C(=O)O)CC2)c1)C(c1ccc(Cn2ccc(C(F)(F)F)cc2=O)cc1)C1CCCC1 (centres unmarked) [Example 176, 1-(3-{[cyclopentyl(4-{[2-oxo-4-(trifluoromethyl)-pyridin-1(2H)-yl]methyl}phenyl)acetyl]amino}-benzyl)cyclopropanecarboxylic acid] | 30 nM | 10 nM | 320 nM |  |
| CC(C(C(=O)Nc1cccc(CCC(=O)O)c1Cl)c1ccc(CN2N=C(c3ccccc3)OCC2=O)cc1)C(F)(F)F (centres unmarked) [Example 184, 3-{2-chloro-3-[(4,4,4-trifluoro-3-methyl-2-{4-[(5-oxo-2-phenyl-5,6-dihydro-4H-1,3,4-oxadiazin-4-yl)methyl]-phenyl}butanoyl)amino]phenyl}propanoic acid] | 3 nM | 7 nM | 240 nM |  |
| C[C@H]([C@H](C(=O)Nc1cccc(CC2(C(=O)O)CC2)c1)c1ccc(CN2Cc3ccccc3C2=O)cc1)C(F)(F)F [Example 207] | 3 nM | 0.5 nM | 11 nM |  |
| O=C(Nc1cccc(CC2(C(=O)O)CC2)c1)C(c1ccc(CN2Cc3c(F)cccc3C2=O)cc1)C1CCCC1 (centres unmarked) [Example 213] | 3 nM | 1.2 nM | 24 nM |  |
| C[C@H]([C@H](C(=O)Nc1cccc(CC2(C(=O)O)CC2)c1)c1ccc(CN2Cc3c(F)cccc3C2=O)cc1)C(F)(F)F [Example 219] | 0.2 nM | 0.2 nM | 3.6 nM |  |
| C[C@@H]([C@@H](C(=O)Nc1cccc(CC2(C(=O)O)CC2)c1)c1ccc(CN2Cc3c(F)cccc3C2=O)cc1)C(F)(F)F [Example 220] | 0.3 nM | 2 nM | 75 nM |  |
